These results are taken from article PMC3236199, “Development of Derivatives of 3, 3′-Diindolylmethane as Potent Leishmania donovani Bi-Subunit Topoisomerase IB Poisons” (PLoS ONE, 2011).

Each structure is given as a SMILES string.

Assay [1] concerns L. donovani AG83 amastigotes in Balb/c mouse peritoneal macrophages. Briefly: In vitro macrophage infection, clearance of intracellular amastigotes. As to conditions: 50 µM, 24 h, infected mouse macrophages. Type of assay: cell-based, Leishmania donovani. The text has this:
Balb/c mice, originally obtained from Jackson Laboratories, Bar Harbor, ME and reared in the institute animal facilities, were used for experimental purposes with prior approval of the animal ethics committee. Macrophages were isolated from mice 36 to 48 hr post injection (intraperitoneal) with 2% (w/v) hydrolyzed starch by peritoneal lavage with ice-cold phosphate-buffered saline. Cells were washed and cultured for 18–24 hr (for adherence) in RPMI 1640 (supplemented with 100 IU/ml of penicillin and […] of streptomycin) containing 10% (v/v) heat-inactivated FBS (RPMI-FBS) at 37°C with 5% CO2 in air on sterile cover glass (22 mm×22 mm) placed in disposable plates 35 mm in diameter (Tarsons India Ltd.). The culture medium was washed off and fresh RPMI-FBS was added. About 5×10^5 macrophages were maintained for proper distribution on cover glass. During the course of this study, macrophages were infected with promastigotes at a macrophage-to-parasite ratio of 1∶10 in RPMI-FBS for 6 hours to ensure entry of parasite. Following incubation, unphagocytosed parasites were removed by washing with medium, and cells were resuspended in RPMI-FBS at 37°C, 5% CO2 and then incubated for 6 hrs. Cultures were transferred to a CO2 incubator at 37°C and incubated for another 10–12 hr. Respective inhibitors were added at different concentrations (ranging from 5 µM to 50 µM) to infected macrophages and left for another 24 hr period. Cells were then fixed in methanol and stained with 2% Giemsa. Percentages of infected cells and total number of intracellular parasites were determined by manual counting in at least 200 cells using light microscope.
Primary macrophage cells were obtained from Balb/c mice peritoneal extrudates. After adherence and inactivation, these macrophage cells were infected with early passaged L. donovani AG83 promastigotes were infected to macrophages. After subsequent washing they were incubated with different concentrations (5, 10, 20 and 50 µM) of each of these inhibitors for 24 h (Fig. 3A). Macrophages were fixed and intracellular amastigotes were counted by Giemsa staining. […]
Figure 3 Effectiveness of clearance of internalized L. donovani (AG83) from in vitro infected mouse M [drawing 3] . […] Cells were fixed, stained with Giemsa and counted under bright field microscope. […] Experiments were carried out for three times and representative results are the mean ± S.D. (B) Growth of DIM resistant L. donovani axenic amastigotes were monitored in presence of increasing concentrations (2, 5, 10, 20 and 50 µM) of DIM, DPDIM, DMDIM and DMODIM for 12 h. […] Growth of the parasites treated with the compounds was expressed as percentage of the viable promastigotes compared with that of control. […]

Assay [2] concerns F270L mutant topoisomerase I. Briefly: Equilibrium (duplex oligonucleotide) cleavage assay, F270L mutant. As to conditions: 20 µM, with respect to cleavable complex formed without drug with wild type enzyme. The assay is classed as biochemical, Leishmania donovani. How it is done:
Cells were lysed and proteins were purified through Ni^+2-NTA agarose column (Qiagen) followed by phosphocellulose column chromatography (P11 cellulose, Whatman) as described. Finally the purified proteins LdTOP1L, LdTOP1L^F270L and LdTOP1S were stored at −70°C. Purified LdTOP1L and LdTOP1L^F270L were mixed with purified LdTOP1S separately and at a molar ratio of 1∶1 at a total protein concentration of 0.5 mg/ml in reconstitution buffer (50 mM potassium phosphate, pH 7.5, 0.5 mM DTT, 1 mM EDTA, 0.1 mM PMSF, 10% glycerol). The mixtures were dialyzed over night at 4°C and the dialyzed fractions were used for the plasmid relaxation activity.
The 25-mer oligonucleotide 1 (5′-GAAAAAAGACTT↓AGAAAAATTTTTA-3′) was 5′-end labeled with [γ^32P] ATP and annealed with oligonucleotide 2 (5′-[…]-3′) to make a duplex oligonucleotide containing a topoisomerase I binding motif as described. Cleavage assay was carried out using 20-fold molar excess of enzymes over duplex 25-mer DNA (enzymes, 0.2 µM; DNA, 10 nM). The reactions were carried out in standard assay condition in the absence or presence of drugs at 37°C for 30 min. All the reactions were stopped by addition of SDS to a final concentration of 2% (w/v), digested with 5 µl of 1 mg/ml trypsin and analyzed by 12% denaturing polyacrylamide gel followed by autoradiography. The amount of strand cleavage in the presence of drugs was determined by densitometry of the film as described.
The effect of DIM and its derivatives on L. donovani topoisomerase I was examined by plasmid DNA cleavage assay as described. The topoisomerase reaction has three general mechanistic steps: (i) binding of enzyme to the substrate DNA, (ii) single strand breakage and subsequent strand rotation through the break leading to change in linking number, and (iii) strand religation. The second step of reaction is the introduction of a single-stranded nick in the phosphodiester bond of the DNA, through which an intact strand is allowed to pass. […]

On to `c1ccc2c(Cc3c[nH]c4ccccc34)c[nH]c2c1` [DIM, 3, 3′-diindolyl methane, reference compound], for which, in assay [1], the “efficiency of amastigote killing (clearance from macrophages)” value (shortened to “efficiency of amastigote killing”) was 91%. For `Cc1[nH]c2ccccc2c1Cc1c(C)[nH]c2ccccc12` [DMDIM, 2,2′-dimethyl 3,3′-diindolyl methane], the “efficiency of amastigote killing” value in assay [1] was found to be 92%. The compound further gave an extent of cleavage in assay [2] of around 53%.

`COc1ccc2[nH]cc(Cc3c[nH]c4ccc(OC)cc34)c2c1` [DMODIM, 5,5′-dimethoxy 3,3′-diindolyl methane]: in assay [1], the “efficiency of amastigote killing” value is listed as “about 85%”. For the same compound, in assay [2], the extent of cleavage is given as around 50%.

For `c1ccc(-c2[nH]c3ccccc3c2Cc2c(-c3ccccc3)[nH]c3ccccc23)cc1` [DPDIM, 2,2′-diphenyl 3,3′-diindolyl methane], in assay [1], the “efficiency of amastigote killing” value is listed as 96%. The same compound gave an extent of cleavage in assay [2] of 56%.
